Test system: 922993-354-T-J3-PDC complex spheroids, viability
Experiment: Anticancer human tumor 922993-354-T-J3-PDC patient-derived endometrial carcinoma cell line growth inhibition [GQUAD]
Settings: for IC50: curve of first compound; for viability, T/C: stronger effect = lower value
Excerpt: DNA G-quadruplex Stabilizer Agents in Combinations in Complex Spheroids
A high-throughput screen of multi-cell type tumor spheroids was designed to identify active combinations of DNA G-quadruplex stabilizer agents and targeted small molecules. Complex spheroids include a stromal component modeled by human endothelial cells (HUVEC) and fibroblasts modeled by human mesenchymal stem cells (MSCs). The concentration ranges selected for each drug and investigational agent were based upon clinically achievable concentrations if the clinical Cmax of the agent was known.
Compounds. The drugs and investigational agents: pidnarulex (CX-5461; NSC782164), APTO-253 (NSC789042), BRACO-19 (NSC847499), peposertib (NSC802822), ceralasertib (NSC780249), elimusertib (NSC800525), camonsertib (NSC841442), AZD-1390 (NSC803789), olaparib (NSC753686), talazoparib (NSC767125), ART-558 (NSC835418), sotorasib (NSC818433), MRTX-1133 (NSC836407), SN-38 (NSC673596), topotecan (NSC609699), etoposide (NSC141540), doxorubicin (NSC123127), gemcitabine (NSC613327), 5-fluorouracil (NSC19893), paclitaxel (NSC125973), vemurafenib (NSC761431), panobinostat (NSC761190), R-306465 (JNJ-16241199; NSC773264), adavosertib (NSC754352), TP-3654 (NSC805149), carboplatin (NSC241240), KSQ-4279 (NSC840948), and staurosporine (NSC755774) were obtained from the National Cancer Institute (NCI) Developmental Therapeutics Program Chemical Repository (34). The FDA-approved anticancer drug set is available from the NCI Developmental Therapeutics Program. […] The stock solutions were prepared in dimethyl sulfoxide (DMSO, Sigma-Aldrich, St. Louis, MO, cat. D2650) at 800-fold the tested concentration and stored at -70 degrees C prior to their use. All drugs and investigational agents were tested over a range starting from a high concentration at or near the clinical Cmax and decreasing in half-log increments. If the clinical Cmax for an agent had not been determined, the highest concentration tested was 10 microM.
2.3 Cell Culture. All cells were maintained in an incubator at 37 degrees C and 5% CO2 with 95% humidity. The PDC lines were cultured according to standard operating procedures established by the NCI PDMR. All PDCs were thawed and cultured in Matrigel-coated flasks prepared with a working solution of 1X Ham's F-12 nutrient mix, without supplementation (Invitrogen, cat. 11765054), 100 U/mL penicillin-streptomycin (Invitrogen, cat. 15140122), and 2.5% Matrigel (Corning Inc., cat. 354248) for the first three passages. The 857933-349-R-J2-PDC line was cultured in 6C/Colon 1B media, which includes advanced DMEM/F-12 (Thermo Fisher Scientific, cat. 12634028), 10 mM HEPES (Thermo Fisher Scientific, cat. 15630080), 1X GlutaMAX supplement (Thermo Fisher Scientific, cat. 35050061), 0.1 mg/mL primocin (InvivoGen, cat. ant-pm-2), 10% defined fetal bovine serum, heat inactivated (HyClone Laboratories Inc., cat. SH30070.03HI), 50% L-WRN conditioned media (ATCC, cat. CRL-3276), 1.25 mM N-Acetyl-L-cysteine (Sigma-Aldrich, cat. A9165), 10 mM nicotinamide (Sigma-Aldrich, cat. N0636), 1X B-27 supplement (Thermo Fisher Scientific, cat. 17504044), 1X N-2 supplement (Thermo Fisher Scientific, cat. 17502048), 10 microM Y-27632 dihydrochloride (Tocris Bioscience, cat. 1254), and 50 ng/mL human EGF recombinant protein (Thermo Fisher Scientific, cat. PHG0311). The 485176-168-R4-J1-PDC line was cultured in Panc media, which includes all 6C/Colon 1B media components plus 100 ng/mL human FGF-10 (Thermo Fisher Scientific, cat. 100-26), 500 nM SB-431542 (Selleckchem, cat. S1067), and gastrin (Tocris, cat. 3006).
[…]

[1] = second compound 0.0316 µM, first compound 0.0316 µM
[2] = second compound 0.0316 µM, first compound 0.1 µM
[3] = second compound 0.0316 µM, first compound 0.316 µM
[4] = second compound 0.0316 µM, first compound 1 µM
[5] = second compound 0.0316 µM, first compound 3.16 µM
[6] = second compound 0.0316 µM, first compound 10 µM
[7] = second compound 0.1 µM, first compound 0.0316 µM
[8] = second compound 0.1 µM, first compound 0.1 µM
[9] = second compound 0.1 µM, first compound 0.316 µM
[10] = second compound 0.1 µM, first compound 1 µM
[11] = second compound 0.1 µM, first compound 3.16 µM
[12] = second compound 0.1 µM, first compound 10 µM
[13] = second compound 0.316 µM, first compound 0.0316 µM
[14] = second compound 0.316 µM, first compound 0.1 µM
[15] = second compound 0.316 µM, first compound 0.316 µM
[16] = second compound 0.316 µM, first compound 1 µM
[17] = second compound 0.316 µM, first compound 3.16 µM
[18] = second compound 0.316 µM, first compound 10 µM
[19] = second compound 1 µM, first compound 0.0316 µM
[20] = second compound 1 µM, first compound 0.1 µM
[21] = second compound 1 µM, first compound 0.316 µM
[22] = second compound 1 µM, first compound 1 µM
[23] = second compound 1 µM, first compound 3.16 µM
[24] = second compound 1 µM, first compound 10 µM
[25] = second compound 3.16 µM, first compound 0.0316 µM
[26] = second compound 3.16 µM, first compound 0.1 µM
[27] = second compound 3.16 µM, first compound 0.316 µM
[28] = second compound 3.16 µM, first compound 1 µM
[29] = second compound 3.16 µM, first compound 3.16 µM
[30] = second compound 3.16 µM, first compound 10 µM
[31] = second compound 10 µM, first compound 0.0316 µM
[32] = second compound 10 µM, first compound 0.1 µM
[33] = second compound 10 µM, first compound 0.316 µM
[34] = second compound 10 µM, first compound 1 µM
[35] = second compound 10 µM, first compound 3.16 µM
[36] = second compound 10 µM, first compound 10 µM
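Also: spheroids exposed to compounds for seven days.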
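For viability, T/C in this document: 100% = DMSO vehicle control viability.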

SMILES: CC1COCCN1c1cc(C2(S(C)(=N)=O)CC2)nc(-c2ccnc3[nH]ccc23)n1 (centres undefined) + CN(C)c1ccc(Nc2c3ccc(NC(=O)CCN4CCCC4)cc3nc3cc(NC(=O)CCN4CCCC4)ccc23)cc1
- IC50 (second compound 0.0316 µM): > 10 µM
- IC50 (second compound 0.1 µM): > 10 µM
- IC50 (second compound 0.316 µM): > 10 µM
- IC50 (second compound 1 µM): > 10 µM
- IC50 (second compound 3.16 µM): > 10 µM
- IC50 (second compound 10 µM): > 10 µM
- viability, T/C [1]: 110%
- viability, T/C [2]: 124%
- viability, T/C [3]: 127%
- viability, T/C [4]: 87.1%
- viability, T/C [5]: 117%
- viability, T/C [6]: 70.4%
- viability, T/C [7]: 119%
- viability, T/C [8]: 121%
- viability, T/C [9]: 96.4%
- viability, T/C [10]: 85.2%
- viability, T/C [11]: 92.1%
- viability, T/C [12]: 68.4%
- viability, T/C [13]: 102%
- viability, T/C [14]: 102%
- viability, T/C [15]: 89%
- viability, T/C [16]: 111%
- viability, T/C [17]: 89.5%
- viability, T/C [18]: 64.6%
- viability, T/C [19]: 114%
- viability, T/C [20]: 116%
- viability, T/C [21]: 99.9%
- viability, T/C [22]: 96.5%
- viability, T/C [23]: 121%
- viability, T/C [24]: 76.2%
- viability, T/C [25]: 102%
- viability, T/C [26]: 128%
- viability, T/C [27]: 105%
- viability, T/C [28]: 115%
- viability, T/C [29]: 108%
- viability, T/C [30]: 79.3%
- viability, T/C [31]: 121%
- viability, T/C [32]: 140%
- viability, T/C [33]: 130%
- viability, T/C [34]: 114%
- viability, T/C [35]: 109%
- viability, T/C [36]: 93.4%

SMILES: COc1ccc([C@@H](O)c2cc(-c3ncnc4cc(N5CCOCC5)ccc34)c(F)cc2Cl)nn1 + CN(C)c1ccc(Nc2c3ccc(NC(=O)CCN4CCCC4)cc3nc3cc(NC(=O)CCN4CCCC4)ccc23)cc1
- IC50 (second compound 0.0316 µM): > 10 µM
- IC50 (second compound 0.1 µM): > 10 µM
- IC50 (second compound 0.316 µM): > 10 µM
- IC50 (second compound 1 µM): > 10 µM
- IC50 (second compound 3.16 µM): > 10 µM
- IC50 (second compound 10 µM): > 10 µM
- viability, T/C [1]: 101%
- viability, T/C [2]: 111%
- viability, T/C [3]: 103%
- viability, T/C [4]: 111%
- viability, T/C [5]: 104%
- viability, T/C [6]: 82.3%
- viability, T/C [7]: 105%
- viability, T/C [8]: 99.5%
- viability, T/C [9]: 89.7%
- viability, T/C [10]: 88.2%
- viability, T/C [11]: 84.8%
- viability, T/C [12]: 71.8%
- viability, T/C [13]: 76.6%
- viability, T/C [14]: 103%
- viability, T/C [15]: 83.6%
- viability, T/C [16]: 79%
- viability, T/C [17]: 86.9%
- viability, T/C [18]: 71.4%
- viability, T/C [19]: 119%
- viability, T/C [20]: 106%
- viability, T/C [21]: 104%
- viability, T/C [22]: 101%
- viability, T/C [23]: 88.4%
- viability, T/C [24]: 79.2%
- viability, T/C [25]: 81.5%
- viability, T/C [26]: 101%
- viability, T/C [27]: 120%
- viability, T/C [28]: 105%
- viability, T/C [29]: 97.7%
- viability, T/C [30]: 75.1%
- viability, T/C [31]: 105%
- viability, T/C [32]: 110%
- viability, T/C [33]: 134%
- viability, T/C [34]: 88.6%
- viability, T/C [35]: 109%
- viability, T/C [36]: 83.1%

— PubChem BioAssay AID2060489 (Molecular Pharmacology Branch, DTP, NCI, 2025)
